The record followed here is patent US9029405B2, “5-(biphenyl-4-yl)-3-phenyl-1,2,4-oxadiazolyl derivatives as ligands on the sphingosine 1-phosphate(SIP)receptors” (Merck Serono S.A., priority 2010, dated 2015).

The structures appear in SMILES notation. Structures can show the parent of a compound that is named as a salt. Where two headings read alike, the source gives them in different places.

Usually melting point stands for the temperature, or range, at which the solid turns liquid. Usually Ki stands for the equilibrium dissociation constant of an inhibitor or competing ligand from its target. Usually AUC(0-inf) stands for total exposure, with the tail of the curve extrapolated. As a reminder, the Cmax is the highest concentration seen after dosing. By Tmax is commonly meant the time at which the peak concentration occurs. In general, EC50 refers to the midpoint of the concentration-response curve.

Series [1] concerns the target T1, S1P1 (Homo sapiens, UniProt P21453). The experiment in a line: Receptor binding assay, [33P]sphingosine 1-phosphate competition, membranes of CHO cells expressing S1P1. In outline: (§1)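 SPA competition on CHO membranes with [33P]S1P at 30 pM (S1P1) or 15 pM (S1P3), in 50 mM HEPES pH 7.5, 5 mM MgCl2, 100 mM NaCl, 0.4% fatty acid-free BSA, 60 min at RT. Non-specific binding defined by 1000-fold unlabeled S1P; Ki values reported.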
Target sequence in this assay (P21453 whole entry, species assumed): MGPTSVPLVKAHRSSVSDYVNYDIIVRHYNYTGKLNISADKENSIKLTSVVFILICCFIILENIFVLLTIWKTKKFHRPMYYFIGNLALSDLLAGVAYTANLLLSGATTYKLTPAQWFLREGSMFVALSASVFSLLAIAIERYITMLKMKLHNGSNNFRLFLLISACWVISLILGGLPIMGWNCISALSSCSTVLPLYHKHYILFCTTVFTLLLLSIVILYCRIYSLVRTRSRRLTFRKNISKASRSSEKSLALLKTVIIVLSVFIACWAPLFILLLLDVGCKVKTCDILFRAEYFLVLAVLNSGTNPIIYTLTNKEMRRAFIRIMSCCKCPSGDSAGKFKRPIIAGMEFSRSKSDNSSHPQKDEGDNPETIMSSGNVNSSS

The target in the next series is S1P3 (Homo sapiens, UniProt Q99500). The experiment in a line: Receptor binding assay, [33P]sphingosine 1-phosphate competition, membranes of CHO cells expressing S1P3. The conditions noted are these: 384 well plate; read-out: S1P3 Binding Ki [M] (384 well plate). In outline:
as §1

Another series has as its system lymphocytes. The experiment in a line: Model of S1P agonists-induced lymphopenia in mice. The class given is in vivo. The following applies: oral route, 30 mpk. How it is done: (§2) Female C57BL/6 mice (Elevage Janvier) (8 week old) receive S1P agonists by oral route. Blood is sampled in heparinized (100 IU/kg, ip) mice by intracardiac or retroorbital puncture under isoflurane anesthesia 2 to 120 hrs after drug treatment. The white blood cells (lymphocytes and neutrophils) are counted using a Beckman/Coulter counter. The quality of blood sampling is assessed by counting erythocytes and platelets.

Series [2] is described as follows: Pharmacokinetics from lymphopenia study (mouse). The class given is in vivo. The conditions noted are these: PK-PD (30 mpk). The method, then:
as §2
The pharmacokinetic properties of compound of example 31, 2-({2-Fluoro-4-[5-(2′-methyl-2-trifluoromethyl-biphenyl-4-yl)-[1,2,4]oxadiazol-3-yl]-benzyl}-methyl-amino)-2-methyl-propionic acid, are the following: […]

Series [3] addresses T1, S1P1. The experiment in a line: S1P1 internalization assay in S1P1-U2OS cells (cell imaging). Format: cell-based. Set-up: host or cells: U2OS (human bone osteosarcoma epithelial cells). The conditions noted are these: U2OS cells expressing S1P1-EGFP, 384-well format. In outline: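 U2OS cells stably expressing human S1P1-EGFP, serum-starved 2 h in medium with 0.1% fatty-acid-free BSA, then compound 1 h at 37° C. After fixation and Hoechst nuclear stain, receptor internalization imaged as EGFP spot count per nucleus.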
Target sequence in this assay (P21453 whole entry): as the sequence (P21453 whole entry, species assumed) above

Setting [4] is: 384 well plate, read-out: S1P1 Binding Ki [M] (384 well plate).
Setting [5] is: female, C57BL/6, plasma, 30 mg/kg, oral route.
Where [6] appears, read: 96 well plate, read-out: S1P1 Binding Ki [M] (96 well plate).

Chain of S1P3 (Q99500 whole entry, species assumed): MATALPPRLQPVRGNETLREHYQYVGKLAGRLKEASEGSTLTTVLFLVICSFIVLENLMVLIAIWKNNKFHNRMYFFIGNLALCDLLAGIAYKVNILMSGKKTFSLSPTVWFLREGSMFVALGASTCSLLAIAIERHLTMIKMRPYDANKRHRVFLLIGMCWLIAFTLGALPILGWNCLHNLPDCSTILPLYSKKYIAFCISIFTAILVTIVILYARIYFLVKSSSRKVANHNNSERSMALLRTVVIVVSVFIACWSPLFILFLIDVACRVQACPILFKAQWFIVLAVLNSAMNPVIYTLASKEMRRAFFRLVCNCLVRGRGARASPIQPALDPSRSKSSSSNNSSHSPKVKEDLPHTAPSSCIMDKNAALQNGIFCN

`Cc1cc(-c2nc(-c3ccc([C@H](C)N(C)CC(=O)O)cc3)no2)ccc1-c1ccccc1C(F)(F)F` (as salt: hydrochloride) [Example 33, N-methyl-N-[(1S)-1-(4-{5-[2-methyl-2′-(trifluoromethyl)biphenyl-4-yl]-1,2,4-oxadiazol-3-yl}phenyl)ethyl]glycine, hydrochloride salt] returned a melting point of 217 °C.
Same read-out and setting: the result for `Cc1ccccc1-c1ccc(-c2nc(-c3ccc([C@H](C)N(C)CC(=O)O)cc3)no2)cc1C(F)(F)F` (as salt: hydrochloride) [Example 34, N-methyl-N-[(1S)-1-(4-{5-[2′-methyl-2-(trifluoromethyl)biphenyl-4-yl]-1,2,4-oxadiazol-3-yl}phenyl)ethyl]glycine, hydrochloride salt] reads 221 °C.
In turn, `Cc1cc(-c2nc(-c3ccc([C@@H](C)N(C)CC(=O)O)cc3)no2)ccc1-c1ccccc1C(F)(F)F` (as salt: hydrochloride) [Example 35, N-methyl-N-[(1R)-1-(4-{5-[2-methyl-2′-(trifluoromethyl)biphenyl-4-yl]-1,2,4-oxadiazol-3-yl}phenyl)ethyl]glycine, hydrochloride salt] displayed a melting point of 217 °C.
As for `Cc1ccccc1-c1ccc(-c2nc(-c3ccc([C@@H](C)N(C)CC(=O)O)cc3)no2)cc1C(F)(F)F` (as salt: hydrochloride) [Example 36, N-methyl-N-[(1R)-1-(4-{5-[2′-methyl-2-(trifluoromethyl)biphenyl-4-yl]-1,2,4-oxadiazol-3-yl}phenyl)ethyl]glycine, hydrochloride salt], the melting point is 221 °C.
As for `Cc1cc(-c2nc(-c3cccc(C(C)NCC(=O)O)c3)no2)ccc1-c1ccccc1C(F)(F)F` (stereo not shown) (as salt: hydrochloride) [Example 38, N-[1-(3-{5-[2-methyl-2′-(trifluoromethyl)biphenyl-4-yl]-1,2,4-oxadiazol-3-yl}phenyl)ethyl]glycine, hydrochloride salt], the melting point stood at 176 °C.
Compound `Cc1ccccc1-c1ccc(-c2nc(-c3ccc(C(C)N(C)CC(=O)O)cc3)no2)cc1C(F)(F)F` (stereo not shown) (as salt: hydrochloride) [Example 40, N-methyl-N-[1-(4-{5-[2′-methyl-2-(trifluoromethyl)biphenyl-4-yl]-1,2,4-oxadiazol-3-yl}phenyl)ethyl]glycine, hydrochloride salt] yielded a melting point of 204 °C.
The same measure, in the same setting: the result for `CCC(NCc1ccc(-c2noc(-c3ccc(-c4ccccc4C)c(C(F)(F)F)c3)n2)cc1F)C(=O)O` (stereo not shown) (as salt: hydrochloride) [Example 41, 2-[(2-fluoro-4-{5-[2′-methyl-2-(trifluoromethyl)biphenyl-4-yl]-1,2,4-oxadiazol-3-yl}benzyl)amino]butanoic acid, hydrochloride salt] reads 214 °C.
Still for that read-out and setting: the result for `Cc1ccccc1-c1ccc(-c2nc(-c3cccc(C(C)NCC(=O)O)c3)no2)cc1C(F)(F)F` (stereo not shown) (as salt: hydrochloride) [Example 42, N-[1-(3-{5-[2′-methyl-2-(trifluoromethyl)biphenyl-4-yl]-1,2,4-oxadiazol-3-yl}phenyl)ethyl]glycine, hydrochloride salt] reads 177 °C.
As for `Cc1ccccc1-c1ccc(-c2nc(-c3ccc(CN(C)C(C)(C)C(=O)O)c(F)c3)no2)cc1C(F)(F)F` [Example 31, 2-({2-Fluoro-4-[5-(2′-methyl-2-trifluoromethyl-biphenyl-4-yl)-[1,2,4]oxadiazol-3-yl]-benzyl}-methyl-amino)-2-methyl-propionic acid], the Ki at S1P1 [1] (setting [4]) stood at 5.32e-09 M. Also, the inhibition constant (Ki) at S1P3 worked out at 2.54e-06 M. Also, the “% of lymphopenia in mouse at 48 h” value with lymphocytes is reported as “% of lymphopenia in mouse at 48 h 67 +/− 6”. The “Lymphe node/plasma ratio: 24 h” value in series [2] (24 h) was found to be 2.5. Moreover, the “Lymphe node/plasma ratio: 48 h” value in series [2] (48 h) was found to be 2.7. The compound also returned a CI/F in series [2] (oral route) of 6.7 mL/min/kg. Moreover, in series [2] (female, C57BL/6, brain/plasma, oral, 30 mg/kg, ratio of AUCz, read-out: Brain/plasma ratio: AUCZ (h*ng/ml)), the Kp came to 3.5. For the same compound, in series [2] (setting [5]), the AUC(0-inf) came to 75000 ng·h/mL, the Cmax was found to be 7420 ng/mL and the Tmax was found to be 2 h. For the same compound, the half-life in series [2] (female, C57BL/6, plasma, 30 mg/kg, oral route, read-out: T½ (converted)) is 6.3 h. Besides, a half-maximal response on S1P1 [3] (EC50) required 36.6 nM.
For the compound `CCN(Cc1ccc(-c2noc(-c3ccc(-c4ccccc4C)c(C(F)(F)F)c3)n2)cc1)[C@@H](C)C(=O)O` [Example 89, (2S)-2-(ethyl(4-(5-(2′-methyl-2-(trifluoromethyl)biphenyl-4-yl)-1,2,4-oxadiazol-3-yl)benzyl)amino)propanoic acid], the Ki came to 2.56e-09 M on S1P1 [1] (setting [4]) and 2.03e-06 M at S1P3. For the same compound, on S1P1 [3], the EC50 stood at 32.2 nM.
As for `CCN(Cc1ccc(-c2noc(-c3ccc(-c4ccccc4C)c(C(F)(F)F)c3)n2)cc1)[C@H](C)C(=O)O` [Example 90, (R)-2-(Ethyl-{4-[5-(2′-methyl-2-trifluoromethyl-biphenyl-4-yl) [1,2,4]oxadiazol-3-yl]-benzyl}-amino)-propionic acid], the Ki turned out to be 2.48e-09 M at S1P1 [1] (setting [4]) and 9.48e-07 M at S1P3. For the same compound, at S1P1 [3], the midpoint of the response, the EC50, lay at 7.92 nM.
With `Cc1ccccc1-c1ccc(-c2nc(-c3ccc(CCN[C@H](C(=O)O)C(C)C)cc3)no2)cc1C(F)(F)F` [Example 91, (2S)-3-methyl-2-(4-(5-(2′-methyl-2-(trifluoromethyl)biphenyl-4-yl)-1,2,4-oxadiazol-3-yl)phenethylamino)butanoic acid], the figures for the Ki at S1P1 [1] (setting [4]) and at S1P3 were 8.12e-09 M and 7.36e-06 M, respectively. The compound further registered an EC50 at S1P1 [3] of 34.5 nM.
Take `Cc1ccccc1-c1ccc(-c2nc(-c3ccc(CCN[C@@H](C)C(=O)O)cc3)no2)cc1C(F)(F)F` [Example 92]: the inhibition constant Ki at S1P1 [1] (setting [4]) is 6.94e-09 M; on S1P3, 1.24e-06 M. At S1P1 [3], the EC50 was 29.5 nM.
For the compound `Cc1ccccc1-c1ccc(-c2nc(-c3ccc(CCN[C@H](C)C(=O)O)cc3)no2)cc1C(F)(F)F` [Example 93], the results for the inhibition constant (Ki) on S1P1 [1] (setting [4]) and on S1P3 were 1.22e-08 M and 4.67e-06 M, respectively. The compound further showed an EC50 at S1P1 [3] of 28.6 nM.
Regarding `Cc1ccccc1-c1ccc(-c2nc(-c3cccc(CCN[C@@H](C)C(=O)O)c3)no2)cc1C(F)(F)F` [Example 94, (2S)-2-(3-(5-(2′-methyl-2-(trifluoromethyl)biphenyl-4-yl)-1,2,4-oxadiazol-3-yl)phenethylamino)propanoic acid], the Ki was determined as 1.85e-10 M at S1P1 [1] (setting [6]), 1.01e-09 M on S1P1 [1] (setting [4]) and 7.4e-08 M at S1P3. The compound also yielded an EC50 on S1P1 [3] of 2.91 nM.
Regarding `Cc1ccccc1-c1ccc(-c2nc(-c3cccc(CCN[C@H](C)C(=O)O)c3)no2)cc1C(F)(F)F` [Example 95], the Ki on S1P1 [1] (setting [6]) is 2.15e-10 M; at S1P1 [1] (setting [4]) it was 8.46e-10 M; on S1P3 it was 1.12e-07 M. Moreover, a half-maximal effect at S1P1 [3] (EC50) was put at 4.25 nM.
Take `Cc1ccccc1-c1ccc(-c2nc(-c3cccc(CCN[C@H](C(=O)O)C(C)C)c3)no2)cc1C(F)(F)F` [Example 96]: the figures for the Ki at S1P1 [1] (setting [4]) and on S1P3 were 5.33e-10 M and 1.78e-07 M, respectively. Further, the EC50 on S1P1 [3] was 3.73 nM.
